The values below come from PMC10721786, “Development of a potent benzonitrile-based inhibitor of glutaminyl-peptide cyclotransferase-like protein (QPCTL) with antitumor efficacy” (Signal Transduction and Targeted Therapy, 2023).

By IC50 is commonly meant the concentration needed to halve the response being measured.

For one experiment, the target named is T1, QPCTL (Homo sapiens, UniProt Q9NXS2).
T1 construct: made in house; host or cells: Escherichia coli BL21 (DE3)
In words: Enzyme activity assay (fluorescent, H-Gln-AMC / PGPEP I coupled) against QPCTL. It is filed as biochemical. The settings on record: mean ± SD of three independent experiments. The method, then: The DNA with sequence coding for the human glutaminyl-peptide cyclotransferase-like protein (nucleotide entry: NP_060129) was synthesized and then inserted into the pGEX-4T-2 vector. The vector was transformed into Escherichia coli BL21 (DE3) competent cells (Tiangen Biotech, Cat. # CB105). The bacteria were grown in LB media containing ampicillin (100 μg/ mL) at 37 °C until the cell density reached an OD600 of 0.8- 0.9. The cultures were induced with 1 mM IPTG for 8- 10 h at 20 °C. The bacteria were collected and resuspended in 50 mL PBS, and 1% Triton X-100 (v/v), 1% β-mercaptoethanol (v/v), PMSF (final concentration 1 mM) were added into the mixed solution. The bacterial cells were then harvested by centrifugation (4,700 g for 30 min at 4 °C) followed by ultrasonic breaking. The resulted solution was clarified by centrifugation at 13,800 g for 30 min. GST-beads was suspended to the supernatant and was gently shook for 1 hour to bind the protein. The resulted protein solution was centrifuged at 1,500 g for 5 min and the supernatant was discarded. At least 10-fold the volume of PBS was added to the pellet to sufficiently suspend the beads in the solution. Then the solution was clarified by centrifugation at 1,500 g for 5 min and the supernatant was discarded. The above steps were repeated twice. 1 mL GST elution buffer was added to the pellet and the solution was shaken gently for 30 min following by centrifugation at 1,500 g for 5 min. The supernatant was collected and was eluted with GST elution buffer at least twice. The supernatant was loaded onto SDS-PAGE electrophoresis to detect protein purity. The protein was stored in 20% glycerol at -80 °C.
Enzyme activity was measured by conversion of glutamine-4-amino-7-methylcounarine (H-Gln-AMC) to pyroglutamyl-AMC, which is subsequently a specific substrate for PGPEP I, releasing free AMC which can be fluorescently detected. For typical inhibition assay, 12.5 μL QPCTL protein (7 ng/μL) or QPCT protein (7 ng/μL) (MedChemExpress, Cat. #HY-P76560) and 2.5 μL of tested compounds with different concentrations were pipetted into a 384-well plate on ice. The reaction system was reacted in a shaker at 37 °C, 100 rpm for 10 minutes. Next, 10 μL fluorescent substrate H-Gln-AMC (500 μM) was added and incubated in 100 rpm for 20 min at 37 °C. […] Once done, the plate was moved over to TECAN Infinite 200PRO plate-reader to monitor and record the maximum fluorescence at 380nm excitation/ 460nm emission. The fluorescent signal value obtained was analyzed by Graphpad Prism 8.0 to obtain the inhibitory rate and IC50 of the compound.

Experiment [1] concerns pGlu-CD47. In words: Flow cytometry of pGlu-CD47 (hCD47-CC2C6 binding) in HEK293T cells. It is filed as cell-based, human. As to conditions: for IC50: Homo sapiens, HEK-293T, treatment 48 h, read-out: IC50, dose-dependent inhibition of pGlu-CD47. The method, then: (§1) Binding to cell surface CD47 was assessed by staining cells with fluorochrome-labeled antibodies clone CC2C6 (BioLegend, Cat. # 323102) and B6H12 (Abcam, Cat. # ab134485) to human CD47 at a dilution of 1:100 in PBS containing 1% FBS (FACS buffer) for 30 min on ice, while protected from light. SIRPα binding to CD47 was assessed by incubating cells with PE labeled recombinant human SIRPα/ CD172α Protein, Fc tag (ACRO Biosystems, Cat. # SIA-HP252) or PE labeled mouse SIRPα Protein, His tag (ACRO Biosystems, Cat. # SIA-MP2H6) for 1 hour on ice, while protected from light.
A general note: A flow cytometer gives signals particle by particle.

The next experiment deals with CD47/SIRPα. Nature of the experiment: Cell surface binding of human or mouse SIRPα protein to tumor cells (Raji, B16F10), flow cytometry. It is filed as cell-based. The method, then:
as §1

The subject of experiment [2] is pGlu-CD47. Nature of the experiment: Flow cytometry of pGlu-CD47 (hCD47-CC2C6 binding) in Raji cells. As to conditions: 100 nM, 48 h. It is filed as cell-based, human. Here is the method: as §1
The next experiment concerns CD47. Nature of the experiment: Overall cell surface CD47 (hCD47-B6H12 binding) in HEK293T and Raji cells. The experiment is classed as cell-based, human. As to conditions: 100 nM, 48 h. Here is the method: as §1
In experiment [3] the test system is pGlu-CD47. In words: hCD47-CC2C6 binding to various cancer cells (H929, HCT116, Huh7, SKOV3, SU-DHL-8, T24, H1299, MCF-7). It is filed as cell-based, human. The settings on record: 500 nM, 48 h. The method, then: as §1

T1 sequence (Q9NXS2 whole entry): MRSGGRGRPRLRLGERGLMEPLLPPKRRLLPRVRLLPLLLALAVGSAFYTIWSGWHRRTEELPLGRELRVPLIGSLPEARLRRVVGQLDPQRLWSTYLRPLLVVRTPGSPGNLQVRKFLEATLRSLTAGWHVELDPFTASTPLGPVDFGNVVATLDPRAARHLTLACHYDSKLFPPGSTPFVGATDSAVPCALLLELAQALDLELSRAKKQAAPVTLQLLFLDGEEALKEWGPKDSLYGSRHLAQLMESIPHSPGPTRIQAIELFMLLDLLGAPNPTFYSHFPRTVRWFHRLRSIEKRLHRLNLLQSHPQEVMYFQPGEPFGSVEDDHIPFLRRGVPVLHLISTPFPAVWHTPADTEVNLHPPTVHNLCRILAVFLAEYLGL

Turning to `Cn1cnnc1C1CCN(c2c(C#N)cccc2-c2cccnc2)CC1` [Compound 5], the IC50 on QPCTL was determined as 56.5 ± 11.3 nM.

The compound `Cn1cnnc1C1CCN(c2c(C#N)cccc2-c2ccccc2)CC1` [Compound 6] showed a 50% inhibitory concentration (IC50) on QPCTL of more than 1000 nM.

On to `Cn1cnnc1C1CCN(c2c(C#N)cccc2-c2ccncc2)CC1` [Compound 7], for which the IC50 at QPCTL is more than 1000 nM.

`Cn1cnnc1C1CCN(c2ccccc2C#N)CC1` [Compound 8]: the IC50 against QPCTL is more than 1000 nM.

On QPCTL, `Cn1cnnc1C1CCN(c2c(C#N)cccc2-c2cncnc2)CC1` [Compound 9] returned an IC50 of 76.5 ± 21.3 nM.

On to `Cn1cnnc1C1CCN(c2c(C#N)cccc2-c2ccc(C(F)(F)F)nc2)CC1` [Compound 10], for which the IC50 against QPCTL is more than 1000 nM.

On QPCTL, `Cn1cnnc1C1CCN(c2c(C#N)cccc2-c2ccc(C#N)nc2)CC1` [Compound 11] had an IC50 of 417 ± 210 nM.

Compound `Cn1cnnc1C1CCN(c2c(C#N)cccc2-c2ccc(N)nc2)CC1` [Compound 12] registered an IC50 on QPCTL of 471 ± 244 nM.

As to `COc1ccc(-c2cccc(C#N)c2N2CCC(c3nncn3C)CC2)cn1` [Compound 13], at QPCTL, the concentration for half-maximal inhibition (IC50) is 368 ± 82 nM.

Take `Cn1cnnc1C1CCN(c2c(C#N)cccc2-c2cncc(F)c2)CC1` [Compound 14]: the IC50 on QPCTL is 73.6 ± 11.5 nM.

In the case of `Cn1cnnc1C1CCN(c2c(C#N)cccc2-c2cncc(C#N)c2)CC1` [Compound 15], at QPCTL, 124 ± 9.8 nM corresponded to half-maximal inhibition (IC50).

At QPCTL, `COc1ccncc1-c1cccc(C#N)c1N1CCC(c2nncn2C)CC1` [Compound 16] showed an IC50 of more than 1000 nM.

Compound `Cn1cnnc1C1CCN(c2c(C#N)cccc2-c2cnccc2C(F)(F)F)CC1` [Compound 17] returned an IC50 against QPCTL of 53.5 ± 11.8 nM.

Take `Cc1ccncc1-c1cccc(C#N)c1N1CCC(c2nncn2C)CC1` [Compound 18]: the IC50 at QPCTL was 74.5 ± 13.4 nM.

Compound `Cn1cnnc1C1CCN(c2c(C#N)cccc2-c2cnccc2Cl)CC1` [Compound 19] showed an IC50 at QPCTL of 105 ± 22.3 nM.

With `Cn1cnnc1C1CCN(c2c(C#N)cccc2-c2ccc(O)nc2)CC1` [Compound 20], the IC50 on QPCTL amounted to 187 ± 20.8 nM.

On QPCTL, `Cn1cnnc1C1CCN(c2c(C#N)cccc2-c2ccc(=O)n(C)c2)CC1` [Compound 21] returned an IC50 of 573 ± 85.5 nM.

`Cn1cnnc1C1CCN(c2c(C#N)cccc2-c2cc[nH]c(=O)c2)CC1` [Compound 22]: the IC50 against QPCTL is 17.6 ± 6.2 nM.

`Cn1cnnc1C1CCN(c2c(C#N)cccc2-c2ccn(C)c(=O)c2)CC1` [Compound 23] had an IC50 against QPCTL of 19.6 ± 12.5 nM.

On to `Cn1cnnc1C1CCN(c2c(C#N)cccc2-c2ccoc2)CC1` [Compound 24], for which half-maximal inhibition on QPCTL (IC50) required 135 ± 64.3 nM.

Compound `Cc1noc(C)c1-c1cccc(C#N)c1N1CCC(c2nncn2C)CC1` [Compound 25] yielded an IC50 against QPCTL of more than 1000 nM.

For the compound `Cc1nnc(C2CCN(c3c(C#N)cccc3-c3ccc(F)nc3)CC2)n1C` [Compound 26], the IC50 against QPCTL is 94.3 ± 13.9 nM.

Turning to `CC(C)n1cnnc1C1CCN(c2c(C#N)cccc2-c2ccc(F)nc2)CC1` [Compound 27], the IC50 against QPCTL is more than 1000 nM.

As to `N#Cc1cccc(-c2ccc(F)nc2)c1N1CCC(c2cnc[nH]2)CC1` [Compound 29], on QPCTL, the IC50 was more than 1000 nM.

`CCCOc1ccc([C@H]2CNC(=O)N2c2ccc3[nH]cnc3c2)cc1` [PQ912, reference compound]: the IC50 came to 988 ± 409 nM with pGlu-CD47 [1] and 51.8 ± 6.2 nM on QPCTL.

Regarding `Cn1cnnc1C1CCN(c2c(C#N)cccc2-c2ccc(F)nc2)CC1` [QP5020], the “binding of human or mouse SIRPα protein to cell surface” value in the experiment on CD47/SIRPα is “significantly reduced”. For the same compound, the “inhibitory effect on CD47 pyroglutamation compared to SEN177 and PQ912” value is recorded as “superior inhibitory effects” with pGlu-CD47 [2] and “superior inhibitory effects” in the experiment with pGlu-CD47 [1] (100 nM, 48 h). Further, in the experiment on pGlu-CD47 [1], the IC50 was found to be 6.4 ± 0.7 nM. Further, in the experiment with CD47, the “overall cell surface levels of CD47” value is reported as “did not alter”. Besides, the “CD47 pyroglutamation in various types of cancer cells” value in the experiment with pGlu-CD47 [3] is reported as “significantly attenuated”.
